This is an account of results in patent publication US20150374680A1, “POCHOXIME CONJUGATES USEFUL FOR THE TREATMENT OF HSP90 RELATED PATHOLOGIES” (UNIVERSITE DE STRASBOURG, priority 2010, published 2015).

The subject of assay [1] is HSP90 client protein in SKBR3 cell lines. The following applies: earlier work of the inventors; cited from earlier work.
Assay [2] relates to BT474 breast tumor cells. The following applies: xenografts bearing BT474 breast tumor cells; earlier work of the inventors; cited from earlier work.
The test system of assay [3] is HCC827. As to the kind of experiment: Proliferation assay in HCC827. The following applies: Homo sapiens, HCC827, Lung (EGFR mut). It is filed as cell-based. The protocol: (§1) The compounds were dissolved in 100% DMSO to make 10 mM stock solutions. HER2+BT474 breast carcinoma cells were cultured in DMEM/F12 media, supplemented with 10% FBS. Log-phase growing BT474 cells were seeded in 96 well plates at 1.5×10E4 per well. At this cell density, BT474 is expected to reach confluency about 70-80% in 3 days. Different dilutions of compounds or vehicle in 200 μl (concentration range 0.004-10 μM) were added to the cells and incubated for 72 hours. Upon completion of the incubation, media were gently removed by suction and 100 μl of ATPlite solution (Perkin Elmer) was added in each well. Viable cells were measured by detecting luminescence generated from reaction of ATPlite solution and ATP in the cells using a 96-well microplate luminescence reader. Relative luminescence light unit is correlated to the amount of ATP in viable cells. The assays were performed in duplicates. IC50 was calculated using XLfit. The IC50 shown in Table 4 below is the average IC50 from three independent experiments.
(§2) Additional proliferation assays were performed for certain exemplified compounds using the methods similar to the one described above in multiple cancer cell lines.

Assay [4] deals with PC3. As to the kind of experiment: Proliferation assay in PC3. The settings on record: Homo sapiens, PC-3, PC3, Prostate. In kind it is cell-based. The method, then: as §1, §2
Assay [5] relates to RPM18226. Kind of assay: Proliferation assay in RPM18226. In kind it is cell-based. The following applies: RPM18226, Multiple myeloma. The protocol:
as §1, §2

The subject of assay [6] is N87. Kind of assay: Proliferation assay in N87. It is filed as cell-based. The settings on record: N87, Gastric (Her2+). The method, then: as §1, §2
Assay [7] relates to H23. Kind of assay: Proliferation assay in H23. In kind it is cell-based. The following applies: Homo sapiens, NCI-H23, H23, Lung. The protocol: as §1, §2
Assay [8] has as its system H460. As to the kind of experiment: Proliferation assay in H460. In kind it is cell-based. The following applies: Homo sapiens, NCI-H460, H460, Lung. The method, then: as §1, §2
For assay [9], the system named is A498. Kind of assay: Proliferation assay in A498. The settings on record: Homo sapiens, A498, Renal (VHL mut). In kind it is cell-based. The protocol: as §1, §2
Assay [10] has as its system NCI-H2228. As to the kind of experiment: Proliferation assay in NCI-H2228. In kind it is cell-based. The settings on record: Homo sapiens, NCI-H2228, Lung (EML4-ALK+). The method, then:
as §1, §2

Assay [11] deals with SKOV-3. As to the kind of experiment: Proliferation assay in SKOV-3. It is filed as cell-based. The settings on record: Homo sapiens, SK-OV-3, SKOV-3, Ovarian (Her2+). The protocol:
as §1, §2

For assay [12], the system named is HCC1569. As to the kind of experiment: Proliferation assay in HCC1569. It is filed as cell-based. The settings on record: Homo sapiens, HCC1569, Breast (Her2+; Her2i res). The method, then:
as §1, §2

Assay [13] deals with H1975. Kind of assay: Proliferation assay in H1975. It is filed as cell-based. The settings on record: Homo sapiens, NCI-H1975, H1975, Lung (EGFR mut). The method, then:
as §1, §2

Assay [14] has as its system HT29. As to the kind of experiment: Proliferation assay in HT29. The settings on record: Homo sapiens, HT-29, HT29, Colon. It is filed as cell-based. The protocol: as §1, §2
Assay [15] relates to HCT116. As to the kind of experiment: Proliferation assay in HCT116. In kind it is cell-based. The following applies: Homo sapiens, HCT-116, HCT116, Colon. The method, then: as §1, §2

pIC50: −log10 of the molar value.

Turning to `O=C1OCC/C=C/CC/C=C/C(=N/OCC(=O)N2CCCCC2)Cc2c(Cl)c(O)cc(O)c21` [pochoxime A], in assay [1], the “Concentration inducing client protein degradation” value was “low nM”. The “Effect on tumor in xenografts” value in [2] is given as “tumor regression”.

`C[C@@H]1C/C=C/[C@@H](N)C/C=C/C(=N/OCC(=O)N2CCCCC2)Cc2cc(O)cc(O)c2C(=O)O1` [As-13(6S)-E]: the pIC50 in [3] is 7.10; in assay [4], 7.36; in [5], 7.34; in assay [6] it was 8.15; in assay [7], 7.39; in assay [8], 7.48. For the same compound, the pIC50 in assay [9] is 6.74; in [10], 7.06; in [11] it was 7.48; in [12] it was 6.85; in assay [13] it was 7.43; in assay [14], 7.48. This compound also showed a pIC50 in assay [15] of 7.12.

Broadly, the pIC50 is the IC50 on a negative log10 scale, so that one unit is a factor of ten. A lower pIC50 goes with a high IC50.
